Laboratory results from patent US11649255B2, “Indazoles as hematopoietic progenitor kinase 1 (HPK1) inhibitors and methods using same” (1st Biotherapeutics, Inc., priority 2020, dated 2023).

Target: recombinant human HPK1 (Homo sapiens (Human), UniProt Q92918)
Test: HPK1 kinase assay (ADP-Glo)
Format: biochemical
Details: 25 μM ATP, MBP substrate
Method: HPK1 kinase activity was measured by Promega's ADP-Glo™ kinase assay. In this assay, 5 ng of recombinant human HPK1 (signalchem) is incubated with 5 μL of compounds (0.5% DMSO), 5 μL of MBP (0.5 μg/μl) and 5 μL of ATP (25 μM) in buffer (40 mM Tris, 7.5; 20 mM MgCl2; 0.1 mg/ml BSA; 5 μM DTT). The assay was started by incubating the reaction mixture in a 96-well plate at 30′ C for 40 minutes. After the incubation, 25 uL ADP-Glo reagent was added and the reaction was incubated at room temperature for 40-min to stop the reaction and degrade residual ATP. The ADP product was then converted to ATP by adding 50 uL per well of detection reagent. Luminescence was detected after 30-min room temperature incubation with the Molecular device I3X plate reader. The IC50 values were calculated from a series of percent inhibition values determined at a range of inhibitor concentration using software routines as implemented in the GraphPad Prism 7 software and SigmaPlot13.0.

recombinant human HPK1, sequence (Q92918 whole entry): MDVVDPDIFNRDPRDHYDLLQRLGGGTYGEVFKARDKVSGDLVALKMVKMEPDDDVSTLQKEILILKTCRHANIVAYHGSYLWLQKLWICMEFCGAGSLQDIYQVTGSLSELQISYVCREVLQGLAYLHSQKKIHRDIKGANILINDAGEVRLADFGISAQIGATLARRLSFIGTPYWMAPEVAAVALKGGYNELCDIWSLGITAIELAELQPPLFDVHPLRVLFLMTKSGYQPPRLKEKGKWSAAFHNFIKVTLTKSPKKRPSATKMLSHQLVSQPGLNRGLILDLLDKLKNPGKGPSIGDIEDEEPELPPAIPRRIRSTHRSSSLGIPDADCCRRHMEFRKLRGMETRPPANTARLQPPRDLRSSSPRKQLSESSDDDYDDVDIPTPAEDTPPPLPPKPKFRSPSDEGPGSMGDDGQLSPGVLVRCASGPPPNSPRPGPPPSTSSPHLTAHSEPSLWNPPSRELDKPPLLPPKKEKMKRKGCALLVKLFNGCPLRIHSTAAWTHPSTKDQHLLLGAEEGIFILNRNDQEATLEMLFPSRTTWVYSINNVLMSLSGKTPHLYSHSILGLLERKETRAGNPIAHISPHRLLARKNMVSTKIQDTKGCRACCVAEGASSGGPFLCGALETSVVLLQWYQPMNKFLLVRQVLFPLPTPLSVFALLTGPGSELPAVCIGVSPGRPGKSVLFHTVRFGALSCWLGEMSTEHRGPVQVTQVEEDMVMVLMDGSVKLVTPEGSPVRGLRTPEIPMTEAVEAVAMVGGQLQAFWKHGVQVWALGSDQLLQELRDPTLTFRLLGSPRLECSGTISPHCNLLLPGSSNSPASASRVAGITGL

Structure (SMILES): O=C(Nc1cc2cc(-c3c(Cl)c(F)c(OC(F)(F)F)c4[nH]ncc34)ccn2n1)[C@@H]1C[C@@H]1F [Example 607, (1S,2S)-N-(5-(5-chloro-6-fluoro-7-(trifluoromethoxy)-1H-indazol-4-yl)pyrazolo[1,5-a]pyridin-2-yl)-2-fluorocyclopropane-1-carboxamide]
- IC50: < 100 nM

Structure (SMILES): C=Cc1n[nH]c2cc(F)c(C)c(-c3ccc4nc(NC(=O)[C@@H]5C[C@@H]5F)sc4c3)c12 [Example 52, (1S,2S)-2-fluoro-N-(6-(6-fluoro-5-methyl-3-vinyl-1H-indazol-4-yl)benzo[d]thiazol-2-yl)cyclopropane-1-carboxamide]
- IC50: > 1000 nM

Structure (SMILES): CC(=O)c1ccc2[nH]ncc2c1-c1ccn2nc(NC(=O)[C@@H]3C[C@@H]3F)cc2c1 [Example 453, (1S,2S)-N-(5-(5-acetyl-1H-indazol-4-yl)pyrazolo[1,5-a]pyridin-2-yl)-2-fluorocyclopropane-1-carboxamide]
- IC50: 501 to 1000 nM

Structure (SMILES): O=C(Nc1nc2ccc(-c3c(CO)ccc4[nH]ncc34)cc2s1)C1CC1 [Example 25, N-(6-(5-(hydroxymethyl)-1H-indazol-4-yl)benzo[d]thiazol-2-yl)cyclopropanecarboxamide]
- IC50: 501 to 1000 nM

Structure (SMILES): CC(C)c1c(F)c(Cl)c(-c2ccn3nc(NC(=O)[C@@H]4C[C@@H]4F)cc3c2)c2cn[nH]c12 [Example 640, (1S,2S)-N-(5-(5-chloro-6-fluoro-7-isopropyl-1H-indazol-4-yl)pyrazolo[1,5-a]pyridin-2-yl)-2-fluorocyclopropane-1-carboxamide]
- IC50: < 100 nM

Structure (SMILES): CC(=O)N(CC#N)c1c(F)c(Cl)c(-c2ccn3nc(NC(=O)[C@@H]4C[C@@H]4F)cc3c2)c2cn[nH]c12 [Example 615, (1S,2S)-N-(5-(5-chloro-7-(N-(cyanomethyl)acetamido)-6-fluoro-1H-indazol-4-yl)pyrazolo[1,5-a]pyridin-2-yl)-2-fluorocyclopropane-1-carboxamide]
- IC50: < 100 nM

Structure (SMILES): CCc1c(F)c(C(F)(F)F)c2[nH]ncc2c1-c1ccc2nc(NC(=O)[C@@H]3C[C@@H]3F)cn2c1 [Example 339, (1S,2S)-N-(6-(5-ethyl-6-fluoro-7-(trifluoromethyl)-1H-indazol-4-yl)imidazo[1,2-a]pyridin-2-yl)-2-fluorocyclopropane-1-carboxamide]
- IC50: < 100 nM

Structure (SMILES): Cc1ccc2[nH]ncc2c1-c1ccc2nc(NC(=O)C3CC(F)C3)sc2c1 [Example 7, (1R,3R)-3-fluoro-N-(6-(5-methyl-1H-indazol-4-yl)benzo[d]thiazol-2-yl)cyclobutane-1-carboxamide]
- IC50: 101 to 500 nM

Structure (SMILES): CNNc1c(F)c(Cl)c(-c2ccc3nc(NC(=O)[C@@H]4C[C@@H]4F)cn3c2)c2cn[nH]c12 [Example 317, (1S,2S)-N-(6-(5-chloro-6-fluoro-7-(2-methylhydrazineyl)-1H-indazol-4-yl)imidazo[1,2-a]pyridin-2-yl)-2-fluorocyclopropane-1-carboxamide]
- IC50: < 100 nM

Structure (SMILES): CSc1c(F)c(N(C)C)c2[nH]ncc2c1-c1ccc2nc(NC(=O)[C@@H]3C[C@@H]3F)cn2c1 [Example 300, (1S,2S)-N-(6-(7-(dimethylamino)-6-fluoro-5-(methylthio)-1H-indazol-4-yl)imidazo[1,2-a]pyridin-2-yl)-2-fluorocyclopropane-1-carboxamide]
- IC50: < 100 nM

Structure (SMILES): Cc1ccc2[nH]ncc2c1-c1ccc2nc(NC(=S)C3CC3)sc2c1 [Example 32, N-(6-(5-methyl-1H-indazol-4-yl)benzo[d]thiazol-2-yl)cyclopropanecarbothioamide]
- IC50: 101 to 500 nM

Structure (SMILES): Cc1c(F)c([S+](C)[O-])c2[nH]ncc2c1-c1ccc2nc(NC(=O)[C@@H]3C[C@@H]3F)sc2n1 (stereo partly drawn) [Example 177, (1S,2S)-2-fluoro-N-(5-(6-fluoro-5-methyl-7-(methylsulfinyl)-1H-indazol-4-yl)thiazolo[5,4-b]pyridin-2-yl)cyclopropane-1-carboxamide]
- IC50: 101 to 500 nM

Structure (SMILES): CCc1c(F)c(C(F)(F)F)c2[nH]ncc2c1-c1ccc2nc(NC(=O)[C@@H]3C[C@@H]3F)sc2n1 [Example 210, (1S,2S)-N-(5-(5-ethyl-6-fluoro-7-(trifluoromethyl)-1H-indazol-4-yl)thiazolo[5,4-b]pyridin-2-yl)-2-fluorocyclopropane-1-carboxamide]
- IC50: < 100 nM

Structure (SMILES): CN(C)c1ccc2[nH]ncc2c1-c1ccc2nc(NC(=O)C3CC3)cn2c1 [Example 230, N-(6-(5-(dimethylamino)-1H-indazol-4-yl)imidazo[1,2-a]pyridin-2-yl)cyclopropanecarboxamide]
- IC50: > 1000 nM

Structure (SMILES): CCc1c(F)c(N(C)C)c2[nH]ncc2c1-c1ccn2nc(NC(=O)[C@@H]3C[C@@H]3F)cc2c1 [Example 519, (1S,2S)-N-(5-(7-(dimethylamino)-5-ethyl-6-fluoro-1H-indazol-4-yl)pyrazolo[1,5-a]pyridin-2-yl)-2-fluorocyclopropane-1-carboxamide]
- IC50: < 100 nM

Structure (SMILES): CCOc1c(F)c(F)c2[nH]ncc2c1-c1ccc2nc(NC(=O)[C@@H]3C[C@@H]3F)cn2c1 [Example 357, (1S,2S)-N-(6-(5-ethoxy-6,7-difluoro-1H-indazol-4-yl)imidazo[1,2-a]pyridin-2-yl)-2-fluorocyclopropane-1-carboxamide]
- IC50: < 100 nM

Structure (SMILES): Cc1c(F)c(N(C)C)c2[nH]ncc2c1-c1ccn2nc(NC(=O)[C@@H]3C[C@@H]3F)cc2c1 [Example 490, (1S,2S)-N-(5-(7-(dimethylamino)-6-fluoro-5-methyl-1H-indazol-4-yl)pyrazolo[1,5-a]pyridin-2-yl)-2-fluorocyclopropane-1-carboxamide]
- IC50: < 100 nM

Structure (SMILES): Cc1ncc(-c2c(F)c(Cl)c(-c3ccc4nc(NC(=O)[C@@H]5C[C@@H]5F)cn4c3)c3cn[nH]c23)[nH]1 [Example 442, (1S,2S)-N-(6-(5-chloro-6-fluoro-7-(2-methyl-1H-imidazol-5-yl)-1H-indazol-4-yl)imidazo[1,2-a]pyridin-2-yl)-2-fluorocyclopropane-1-carboxamide]
- IC50: < 100 nM

Structure (SMILES): CC(=O)Nc1c(F)c(C)c(-c2ccc3nc(NC(=O)[C@@H]4C[C@@H]4F)cn3c2)c2cn[nH]c12 [Example 308, (1S,2S)-N-(6-(7-acetamido-6-fluoro-5-methyl-1H-indazol-4-yl)imidazo[1,2-a]pyridin-2-yl)-2-fluorocyclopropane-1-carboxamide]
- IC50: 101 to 500 nM

Structure (SMILES): O=C(Nc1cc2cc(-c3c(C(F)(F)F)ccc4[nH]ncc34)ccn2n1)[C@@H]1C[C@@H]1F [Example 451, (1S,2S)-2-fluoro-N-(5-(5-(trifluoromethyl)-1H-indazol-4-yl)pyrazolo[1,5-a]pyridin-2-yl)cyclopropane-1-carboxamide]
- IC50: < 100 nM

Structure (SMILES): O=C(Nc1cc2cc(-c3c(Cl)c(F)c(C(F)F)c4[nH]ncc34)ccn2n1)[C@@H]1C[C@@H]1F [Example 581, (1S,2S)-N-(5-(5-chloro-7-(difluoromethyl)-6-fluoro-1H-indazol-4-yl)pyrazolo[1,5-a]pyridin-2-yl)-2-fluorocyclopropane-1-carboxamide]
- IC50: < 100 nM

Structure (SMILES): CCOc1c(F)c(C)c(-c2ccc3nc(NC(=O)[C@@H]4C[C@@H]4F)sc3c2)c2cn[nH]c12 [Example 98, (1S,2S)-N-(6-(7-ethoxy-6-fluoro-5-methyl-1H-indazol-4-yl)benzo[d]thiazol-2-yl)-2-fluorocyclopropanecatboxamide]
- IC50: < 100 nM

Structure (SMILES): N#CCNc1c(F)c(Cl)c(-c2ccn3nc(NC(=O)[C@@H]4C[C@@H]4F)cc3c2)c2cn[nH]c12 [Example 636, (1S,2S)-N-(5-(5-chloro-7-((cyanomethyl)amino)-6-fluoro-1H-indazol-4-yl)pyrazolo[1,5-a]pyridin-2-yl)-2-fluorocyclopropane-1-carboxamide]
- IC50: < 100 nM
